Biological target: T1, RXRα (Homo sapiens, UniProt P19793)
T1 sequence (P19793 1-462): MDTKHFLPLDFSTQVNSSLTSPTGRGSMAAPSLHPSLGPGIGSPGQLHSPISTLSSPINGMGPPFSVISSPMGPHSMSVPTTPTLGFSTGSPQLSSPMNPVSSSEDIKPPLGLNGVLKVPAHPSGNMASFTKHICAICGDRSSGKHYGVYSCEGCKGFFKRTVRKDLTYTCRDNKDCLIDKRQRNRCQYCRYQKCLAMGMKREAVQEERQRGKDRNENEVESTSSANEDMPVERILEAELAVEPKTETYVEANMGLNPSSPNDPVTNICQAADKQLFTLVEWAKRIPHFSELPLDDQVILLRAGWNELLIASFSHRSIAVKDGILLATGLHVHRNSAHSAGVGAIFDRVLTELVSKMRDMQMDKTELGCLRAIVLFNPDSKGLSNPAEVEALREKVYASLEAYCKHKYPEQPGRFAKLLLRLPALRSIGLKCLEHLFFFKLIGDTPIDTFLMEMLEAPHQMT
Assay: Receptor transactivation assay, RXRα (CV-1 cells, rCRBPII/RXRE-tk-Luc reporter)
Assay type: cell-based
Conditions: 20h
Excerpt: For RXR: CV-1 cells were transfected with rCRBPII/RXRE-tk-Luc reporter gene and an expression vector for RXRα, β, or γ. For RAR: CV-1 cells were transfected with ERE-tk-Luc reporter gene and an expression vector for the appropriate ER-RARα, β, or γ. ER-RARs are fusion proteins, composed of the estrogen receptor (ER) DNA binding domain fused to the ligand binding domain of RARs. This system eliminates interference by the low level of endogenous RAR activity in CV1 cells as the readout comes only from the transfected ER-RAR. For PPARγ: CV-1 cells were transfected with 3x(rAOX/DR1)-tk-Luc reporter gene and an expression vector for PPARγ; for FXR: CV-1 cells were transfected with 3x(IBABP/IR1)-tk-Luc reporter gene and vectors for FXR and RXRα; for LXR: CV-1 cells were transfected with 3x(PLTP/LXRE)-tk-Luc reporter gene with vectors for LXRα or LXRβ. For Nurr1: COS7 cells were transfected with 3xNBRE-tk-luc reporter gene and full length Nurr1 with or without full-length RXRα plasmid. […] Luciferase data were normalized to co-transfected β-gal activity. Luciferase activity is expressed as percent of maximal activity obtained using specific agonists 9-cis-retinoic acid (RXR), retinoic acid (RAR), rosiglitazone (PPARγ), GW4064 (FXR), T0901317 (LXR).

CC(/C=C/[C@@H]1C[C@]1(C)c1ccc2c(c1)C(C)(C)CCC2(C)C)=C\C(=O)O [IRX4204]
concentration that fully activates RXRα: 1 nM | concentration that partially activates RXRα: 0.1 nM
